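Five concentrations, 48 hours, 96-well plates. At the GI50, growth is halved.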 Activity calls are given as the source filed them. No stated cut-off is given here; in the data, active = GI50 up to about 1.1 µM and inactive = higher.
What was measured:
Assay in all cases: growth of human tumour cells (NCI), 48 h
HOP-92 = system: HOP-92
SF-539 = system: SF-539
UACC-62 = system: UACC-62
HOP-62 = system: HOP-62
OVCAR-4 = system: OVCAR-4
HT-29 = system: HT-29
UO-31 = system: UO-31
SF-295 = system: SF-295
KM12 = system: KM12
A549 = system: A549
TK-10 = system: TK-10
MCF7 = system: MCF7
CCRF-CEM = system: CCRF-CEM
SK-MEL-28 = system: SK-MEL-28
MOLT-4 = system: MOLT-4
ACHN = system: ACHN
COLO 205 = system: COLO 205
NCI-H522 = system: NCI-H522
SN12C = system: SN12C
HCT-116 = system: HCT-116

Measured: GI50

CCOC(=O)c1csc(NC(=O)CN2CCCCC2)n1
inactive: HOP-92 > 100 µM | SF-539 > 100 µM | UACC-62 > 100 µM | HOP-62 > 100 µM | OVCAR-4 > 100 µM | HT-29 > 100 µM | UO-31 > 100 µM | SF-295 > 100 µM | KM12 > 100 µM | A549 > 100 µM | TK-10 > 100 µM | MCF7 > 100 µM | CCRF-CEM > 100 µM | SK-MEL-28 > 100 µM | MOLT-4 > 100 µM | ACHN > 100 µM | COLO 205 > 100 µM

COc1ccc(N[C@H](C[S+]([O-])c2ccc(C)cc2)C(F)(F)C(F)(F)F)cc1 (stereo partly specified)
inactive: HOP-92 26.1 µM | SF-539 64.6 µM | UACC-62 43 µM | HOP-62 57.5 µM | OVCAR-4 95.7 µM | HT-29 > 100 µM | NCI-H522 71.4 µM | UO-31 > 100 µM | SF-295 62.4 µM | KM12 > 100 µM | SN12C > 100 µM | A549 99.5 µM | TK-10 > 100 µM | MCF7 > 100 µM | CCRF-CEM > 100 µM | SK-MEL-28 > 100 µM | MOLT-4 > 100 µM | ACHN > 100 µM | COLO 205 > 100 µM | HCT-116 52.4 µM

CCCCOc1ccc2c(c1)CC[C@@H]1[C@@H]2CC[C@]2(C)C(=O)N(CCCC)C(=O)C[C@@H]12
inactive: HOP-92 > 100 µM | UACC-62 > 100 µM | HOP-62 > 100 µM | HT-29 > 100 µM | NCI-H522 > 100 µM | UO-31 > 100 µM | SF-295 > 100 µM | KM12 > 100 µM | SN12C > 100 µM | MCF7 > 100 µM | CCRF-CEM 44.6 µM | MOLT-4 30.4 µM | COLO 205 91.8 µM | HCT-116 > 100 µM

NCCCCNOCCCN
inactive: HOP-92 > 100 µM | SF-539 > 100 µM | UACC-62 > 100 µM | OVCAR-4 > 100 µM | HT-29 > 100 µM | NCI-H522 61.5 µM | UO-31 > 100 µM | SF-295 > 100 µM | KM12 > 100 µM | SN12C > 100 µM | A549 > 100 µM | TK-10 > 100 µM | MCF7 > 100 µM | CCRF-CEM > 100 µM | SK-MEL-28 > 100 µM | MOLT-4 > 100 µM | ACHN > 100 µM | COLO 205 > 100 µM | HCT-116 > 100 µM

COC1CCC2C(=O)CCCC2O1 (stereo unspecified)
inactive: HOP-92 > 100 µM | SF-539 > 100 µM | UACC-62 > 100 µM | HOP-62 > 100 µM | OVCAR-4 > 100 µM | HT-29 > 100 µM | NCI-H522 > 100 µM | UO-31 > 100 µM | SF-295 > 100 µM | KM12 > 100 µM | SN12C > 100 µM | A549 > 100 µM | TK-10 > 100 µM | MOLT-4 > 100 µM | ACHN > 100 µM | COLO 205 > 100 µM | HCT-116 > 100 µM

O=S1(=O)C[C@H](NCc2ccccc2)[C@H](NCc2ccccc2)C1
inactive: HOP-92 > 100 µM | SF-539 > 100 µM | UACC-62 > 100 µM | HOP-62 > 100 µM | OVCAR-4 > 100 µM | HT-29 > 100 µM | NCI-H522 17.6 µM | UO-31 > 100 µM | SF-295 > 100 µM | KM12 > 100 µM | SN12C > 100 µM | A549 > 100 µM | TK-10 > 100 µM | MCF7 83.8 µM | CCRF-CEM 29.4 µM | SK-MEL-28 > 100 µM | MOLT-4 23.8 µM | ACHN > 100 µM | COLO 205 > 100 µM | HCT-116 > 100 µM

COC(=O)C1=C(O)C(C(=O)OC)[C@@]2(O)[C@@H](C(=O)OC)[C@H](C)C[C@@H]1[C@@H]2C(=O)OC (stereo partly specified)
inactive: SF-539 18.4 µM | UACC-62 23.7 µM | HOP-62 31.8 µM | HT-29 27.6 µM | NCI-H522 25.2 µM | UO-31 21.5 µM | KM12 23.5 µM | SN12C 36.6 µM | TK-10 57.9 µM | MCF7 34.8 µM | CCRF-CEM 28.1 µM | SK-MEL-28 46.2 µM | MOLT-4 28.3 µM | ACHN 59.8 µM | HCT-116 35.5 µM

COc1ccc(N2C(=O)C3c4[nH]c5ccc(F)cc5c4C4CCC(C(C)(C)C)CC4C3C2=O)cc1 (stereo unspecified)
inactive: SF-539 6.35 µM | UACC-62 7.43 µM | HOP-62 7.23 µM | OVCAR-4 6.05 µM | HT-29 6.28 µM | NCI-H522 6.87 µM | UO-31 > 10 µM | SF-295 6.04 µM | KM12 > 10 µM | SN12C > 10 µM | A549 7.1 µM | TK-10 9.38 µM | MCF7 > 10 µM | CCRF-CEM 7.13 µM | SK-MEL-28 > 10 µM | MOLT-4 > 10 µM | ACHN > 10 µM | COLO 205 > 10 µM | HCT-116 4.14 µM
